Experimental findings from the supplement of paper PMC10307832 are described below.

Test in all cases: relative viability (nuclei count vs DMSO), 5 days (fraction); higher = more cells survive
Compound in the assay “PAC-1 + AZD7762”: C=CCc1cccc(/C=N/NC(=O)CN2CCN(Cc3ccccc3)CC2)c1O [PAC-1] + NC(=O)Nc1cc(-c2cccc(F)c2)sc1C(=O)N[C@H]1CCCNC1 [AZD7762] (partner 0.2 µM)
In a few lines:
(§1)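 Dosing by pin tool came one day after lung cancer cell lines were seeded in 1536-well plates, using either one drug or a fixed anchor-drug dose plus five library-drug doses (not always all listed) in √10 steps. After 5 days, nuclei were counted on 4× images. Relative viability is treated-well nuclei count divided by vehicle-well nuclei count, and values are medians of duplicate plates.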

Compound in the assay “Ibrutinib + AZD7762”: C=CC(=O)N1CCC[C@@H](n2nc(-c3ccc(Oc4ccccc4)cc3)c3c(N)ncnc32)C1 [Ibrutinib] + NC(=O)Nc1cc(-c2cccc(F)c2)sc1C(=O)N[C@H]1CCCNC1 [AZD7762] (partner 0.2 µM)
The method in brief:
as §1

Compound in the assay “Ibrutinib + Pictilisib”: C=CC(=O)N1CCC[C@@H](n2nc(-c3ccc(Oc4ccccc4)cc3)c3c(N)ncnc32)C1 [Ibrutinib] + CS(=O)(=O)N1CCN(Cc2cc3nc(-c4cccc5[nH]ncc45)nc(N4CCOCC4)c3s2)CC1 [Pictilisib] (partner 1 µM)
In a few lines:
as §1

Compound in the assay “PAC-1 + Trametinib”: C=CCc1cccc(/C=N/NC(=O)CN2CCN(Cc3ccccc3)CC2)c1O [PAC-1] + CC(=O)Nc1cccc(-n2c(=O)n(C3CC3)c(=O)c3c(Nc4ccc(I)cc4F)n(C)c(=O)c(C)c32)c1 [Trametinib] (partner 0.02 µM)
In a few lines: as §1

Regarding HOP-62, the relative viability came out at 0.822 in the assay with PAC-1 + AZD7762 (first compound 0.02 µM); 0.623 in the assay with PAC-1 + AZD7762 (first compound 0.06325 µM); 0.577 with PAC-1 + AZD7762 (first compound 0.2 µM); 0.515 with PAC-1 + AZD7762 (first compound 2 µM); 0.53 with Ibrutinib + AZD7762 (first compound 0.005 µM); 0.662 in the assay with Ibrutinib + AZD7762 (first compound 0.01581 µM). Also, the relative viability with Ibrutinib + AZD7762 (first compound 0.05 µM) stood at 0.651; with Ibrutinib + AZD7762 (first compound 0.1581 µM), 0.867; with Ibrutinib + AZD7762 (first compound 0.5 µM) it was 0.626; with Ibrutinib + Pictilisib (first compound 0.005 µM) it was 0.379; with Ibrutinib + Pictilisib (first compound 0.01581 µM) it was 0.506; with Ibrutinib + Pictilisib (first compound 0.05 µM), 0.67. Further, the relative viability with Ibrutinib + Pictilisib (first compound 0.1581 µM) came to 0.626; with Ibrutinib + Pictilisib (first compound 0.5 µM) it was 0.877; in the assay with PAC-1 + Trametinib (first compound 0.02 µM), 0.387; in the assay with PAC-1 + Trametinib (first compound 0.06325 µM) it was 0.404; with PAC-1 + Trametinib (first compound 0.2 µM) it was 0.388; in the assay with PAC-1 + Trametinib (first compound 2 µM), 0.406.

Turning to BEN, the relative viability in the assay with PAC-1 + AZD7762 (first compound 0.02 µM) worked out at 0.712; with PAC-1 + AZD7762 (first compound 0.06325 µM), 0.626; with PAC-1 + AZD7762 (first compound 0.2 µM), 0.618; in the assay with PAC-1 + AZD7762 (first compound 2 µM) it was 0.828; with Ibrutinib + AZD7762 (first compound 0.005 µM), 0.473; with Ibrutinib + AZD7762 (first compound 0.01581 µM), 0.61. For the same cell line, the relative viability was found to be 0.637 with Ibrutinib + AZD7762 (first compound 0.05 µM); 0.506 in the assay with Ibrutinib + AZD7762 (first compound 0.1581 µM); 0.697 with Ibrutinib + AZD7762 (first compound 0.5 µM); 0.347 in the assay with Ibrutinib + Pictilisib (first compound 0.005 µM); 0.535 with Ibrutinib + Pictilisib (first compound 0.01581 µM); 0.518 with Ibrutinib + Pictilisib (first compound 0.05 µM). The relative viability in the assay with Ibrutinib + Pictilisib (first compound 0.1581 µM) worked out at 0.5; in the assay with Ibrutinib + Pictilisib (first compound 0.5 µM) it was 0.536; with PAC-1 + Trametinib (first compound 0.02 µM), 1.08; with PAC-1 + Trametinib (first compound 0.06325 µM) it was 1.09; with PAC-1 + Trametinib (first compound 0.2 µM), 1.17; in the assay with PAC-1 + Trametinib (first compound 2 µM), 0.923.

As to ChaGo-K-1, the relative viability with PAC-1 + AZD7762 (first compound 0.02 µM) was 0.858; in the assay with PAC-1 + AZD7762 (first compound 0.06325 µM) it was 0.907; with PAC-1 + AZD7762 (first compound 0.2 µM), 0.861; with PAC-1 + AZD7762 (first compound 2 µM), 0.9; with Ibrutinib + AZD7762 (first compound 0.005 µM), 0.85; with Ibrutinib + AZD7762 (first compound 0.01581 µM), 0.798. Further, the relative viability with Ibrutinib + AZD7762 (first compound 0.05 µM) stood at 0.894; in the assay with Ibrutinib + AZD7762 (first compound 0.1581 µM) it was 0.833; with Ibrutinib + AZD7762 (first compound 0.5 µM) it was 0.838; in the assay with Ibrutinib + Pictilisib (first compound 0.005 µM), 0.356; with Ibrutinib + Pictilisib (first compound 0.01581 µM), 0.83; with Ibrutinib + Pictilisib (first compound 0.05 µM), 0.592. For the same cell line, the relative viability with Ibrutinib + Pictilisib (first compound 0.5 µM) came to 0.956; with PAC-1 + Trametinib (first compound 0.02 µM) it was 0.951; with PAC-1 + Trametinib (first compound 0.06325 µM), 0.917; with PAC-1 + Trametinib (first compound 0.2 µM), 0.837; in the assay with PAC-1 + Trametinib (first compound 2 µM), 0.94.

As for NCI-H2087, the relative viability with PAC-1 + AZD7762 (first compound 0.02 µM) was 1.36; with PAC-1 + AZD7762 (first compound 0.06325 µM), 1.4; with PAC-1 + AZD7762 (first compound 0.2 µM) it was 1.09; with PAC-1 + AZD7762 (first compound 2 µM), 1.44; with Ibrutinib + AZD7762 (first compound 0.005 µM), 1.77; with Ibrutinib + AZD7762 (first compound 0.01581 µM), 1.19. Besides, the relative viability with Ibrutinib + AZD7762 (first compound 0.05 µM) amounted to 1.04; in the assay with Ibrutinib + AZD7762 (first compound 0.5 µM), 1.21; in the assay with Ibrutinib + Pictilisib (first compound 0.005 µM), 0.686; with Ibrutinib + Pictilisib (first compound 0.01581 µM) it was 0.878; with Ibrutinib + Pictilisib (first compound 0.05 µM), 0.973; with Ibrutinib + Pictilisib (first compound 0.1581 µM), 0.339. Moreover, the relative viability in the assay with Ibrutinib + Pictilisib (first compound 0.5 µM) came out at 0.862; with PAC-1 + Trametinib (first compound 0.02 µM), 0.184; with PAC-1 + Trametinib (first compound 0.06325 µM) it was 0.227; with PAC-1 + Trametinib (first compound 0.2 µM), 0.236; with PAC-1 + Trametinib (first compound 2 µM), 0.244.

Take NCI-H1395: the relative viability with PAC-1 + AZD7762 (first compound 0.02 µM) amounted to 0.427; with PAC-1 + AZD7762 (first compound 0.06325 µM) it was 0.415; with PAC-1 + AZD7762 (first compound 0.2 µM), 0.352; with PAC-1 + AZD7762 (first compound 2 µM), 0.381; with Ibrutinib + AZD7762 (first compound 0.005 µM), 0.405; in the assay with Ibrutinib + AZD7762 (first compound 0.01581 µM) it was 0.403. The relative viability turned out to be 0.387 with Ibrutinib + AZD7762 (first compound 0.05 µM); 0.404 with Ibrutinib + AZD7762 (first compound 0.1581 µM); 0.413 in the assay with Ibrutinib + AZD7762 (first compound 0.5 µM); 0.611 with Ibrutinib + Pictilisib (first compound 0.005 µM); 0.555 with Ibrutinib + Pictilisib (first compound 0.01581 µM); 0.538 with Ibrutinib + Pictilisib (first compound 0.05 µM). Further, the relative viability stood at 0.562 with Ibrutinib + Pictilisib (first compound 0.1581 µM); 0.655 with Ibrutinib + Pictilisib (first compound 0.5 µM); 1.1 in the assay with PAC-1 + Trametinib (first compound 0.02 µM); 1 with PAC-1 + Trametinib (first compound 0.06325 µM); 0.976 with PAC-1 + Trametinib (first compound 0.2 µM); 0.974 with PAC-1 + Trametinib (first compound 2 µM).
